Target: HPK1 (Homo sapiens (Human), UniProt Q92918)
Experiment: HPK1 Inhibition Assay (ADP-Glo kinase assay)
Format: biochemical
Conditions: ATP 10 μM
Outline: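 ADP-Glo luminescence read-out after 1 h room-temperature kinase reaction with 10 μM ATP and 0.1 μg/ml MBP. Recombinant human HPK1 at 7.5 ng/μl; buffer 40 mM Tris pH 7.5, 20 mM MgCl2. Compounds serially diluted 5-fold over 10 points from 10 mM DMSO stock.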

HPK1, sequence (Q92918 1-346 limits assumed): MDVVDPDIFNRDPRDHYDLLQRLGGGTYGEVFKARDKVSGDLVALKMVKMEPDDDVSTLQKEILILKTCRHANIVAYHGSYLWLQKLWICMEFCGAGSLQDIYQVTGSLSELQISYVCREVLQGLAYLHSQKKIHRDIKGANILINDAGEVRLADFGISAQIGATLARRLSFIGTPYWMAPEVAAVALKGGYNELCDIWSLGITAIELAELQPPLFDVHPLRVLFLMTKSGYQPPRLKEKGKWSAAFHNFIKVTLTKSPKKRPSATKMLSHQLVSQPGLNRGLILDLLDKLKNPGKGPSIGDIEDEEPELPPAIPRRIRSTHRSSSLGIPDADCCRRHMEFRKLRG

IC50 [nM] | Structure (SMILES)
< 100 | Cc1nc2c(N3CC[C@H](N)C3)c(NC(=O)c3ccc(=O)n(-c4c(F)cccc4F)n3)ccc2n1C1CCN(C)CC1 [Example 106, (S)—N-(4-(3-aminopyrrolidin-1-yl)-2-methyl-1-(1-methylpiperidin-4-yl)-1H-benzo[d]imidazol-5-yl)-1-(2,6-difluorophenyl)-6-oxo-1,6-dihydropyridazine-3-carboxamide]
< 100 | Cc1nc2c(N3CC[C@@H](NC(=O)CN)C3)c(NC(=O)c3ccc(=O)n(-c4c(F)cccc4F)n3)ccc2n1C [Example 92, (R)-N-(4-(3-(2-aminoacetamido)pyrrolidin-1-yl)-1,2-dimethyl-1H-benzo[d]imidazol-5-yl)-1-(2,6-difluorophenyl)-6-oxo-1,6-dihydropyridazine-3-carboxamide]
< 100 | COc1ccc(F)c(F)c1-c1nccc(C(=O)Nc2cc(F)ccc2N2C[C@H]3C[C@@H]2CN3)c1F [Example 5, N-(2-((1R,4R)-2,5-diazabicyclo[2.2.1]heptan-2-yl)-5-fluorophenyl)-2-(2,3-difluoro-6-methoxyphenyl)-3-fluoroisonicotinamide]
< 100 | COCCn1c(C)nc2c(N3CC[C@H](N)C3)c(NC(=O)c3ccc(=O)n(-c4c(F)cccc4F)n3)ccc21 [Example 89, (S)-N-(4-(3-aminopyrrolidin-1-yl)-1-(2-methoxyethyl)-2-methyl-1H-benzo[d]imidazol-5-yl)-1-(2,6-difluorophenyl)-6-oxo-1,6-dihydropyridazine-3-carboxamide]
< 100 | CC(C)c1nc2c(N3CC4C(N)C4C3)c(NC(=O)c3ccc(=O)n(-c4c(F)cccc4F)n3)ccc2n1C [Example 119, N-(4-((1R,5S,6r)-6-amino-3-azabicyclo[3.1.0]hexan-3-yl)-2-isopropyl-1-methyl-1H-benzo[d]imidazol-5-yl)-1-(2,6-difluorophenyl)-6-oxo-1,6-dihydropyridazine-3-carboxamide]
< 100 | [2H]C([2H])([2H])C([2H])(n1ncc2c(N3C[C@H](N)C4(CC4)C3)c(NC(=O)c3ccc(=O)n(-c4c(F)cccc4F)n3)ccc21)C([2H])([2H])[2H] [Example 276, (R)-N-(4-(7-amino-5-azaspiro[2.4]heptan-5-yl)-1-(propan-2-yl-d7)-1H-indazol-5-yl)-1-(2,6-difluorophenyl)-6-oxo-1,6-dihydropyridazine-3-carboxamide]
< 100 | CC(C)n1ncc2c(N3C[C@@H](C)[C@@H](NCCO)C3)c(NC(=O)c3ccc(=O)n(-c4c(F)cccc4F)n3)ccc21 [Example 214, 1-(2,6-difluorophenyl)-N-(4-((3R,4R)-3-((2-hydroxyethyl)amino)-4-methylpyrrolidin-1-yl)-1-isopropyl-1H-indazol-5-yl)-6-oxo-1,6-dihydropyridazine-3-carboxamide]
< 100 | C[C@H]1CN(c2c(NC(=O)c3ccc(=O)n(-c4c(F)cccc4F)n3)ccc3nn(C4(C)CC4)cc23)C[C@@H]1N [Example 310, N-(4-((3R,4S)-3-amino-4-methylpyrrolidin-1-yl)-2-(1-methylcyclopropyl)-2H-indazol-5-yl)-1-(2,6-difluorophenyl)-6-oxo-1,6-dihydropyridazine-3-carboxamide]
< 100 | N[C@@H]1CCN(c2c(NC(=O)c3ccc(=O)n(-c4c(F)cccc4F)n3)ccc3c2cnn3CC2CC2)C1 [Example 295, (R)-N-(4-(3-aminopyrrolidin-1-yl)-1-(cyclopropylmethyl)-1H-indazol-5-yl)-1-(2,6-difluorophenyl)-6-oxo-1,6-dihydropyridazine-3-carboxamide]
< 100 | CC(C)n1ncc2c(N3C[C@@H](C)[C@@H](N)C3)c(NC(=O)c3ccc(=O)n(-c4c(F)cccc4F)n3)cc(F)c21 [Example 193, N-(4-((3R,4R)-3-amino-4-methylpyrrolidin-1-yl)-7-fluoro-1-isopropyl-1H-indazol-5-yl)-1-(2,6-difluorophenyl)-6-oxo-1,6-dihydropyridazine-3-carboxamide]
< 100 | COc1cccc(F)c1-c1nccc(C(=O)Nc2ccc3c(nc(C)n3C)c2N2CC[C@H](N)C2)c1F [Example 10, N-(4-((S)-3-aminopyrrolidin-1-yl)-1,2-dimethyl-1H-benzo[d]imidazol-5-yl)-3-fluoro-2-(2-fluoro-6-methoxyphenyl)isonicotinamide]
< 100 | C[C@@H]1CN(c2c(NC(=O)c3ccc(=O)n(-c4c(F)cccc4F)n3)ccc3c2cnn3C2CC2)C[C@@H]1N [Example 298, N-[4-[(3R,4R)-3-amino-4-methyl-pyrrolidin-1-yl]-1-cyclopropyl-indazol-5-yl]-1-(2,6-difluorophenyl)-6-oxo-pyridazine-3-carboxamide]
< 100 | CCn1ncc2c(N3CC[C@@H](N)C3)c(NC(=O)c3ccc(=O)n(-c4c(F)cccc4F)n3)cc(F)c21 [Example 289, (R)-N-(4-(3-aminopyrrolidin-1-yl)-1-ethyl-7-fluoro-1H-indazol-5-yl)-1-(2,6-difluorophenyl)-6-oxo-1,6-dihydropyridazine-3-carboxamide]
< 100 | N#Cc1ccncc1-c1ccc(NC(=O)c2ccc(=O)n(-c3c(F)cccc3F)n2)c(N2CCC(NCCO)CC2)c1 [Example 360, N-(4-(4-cyanopyridin-3-yl)-2-(4-((2-hydroxyethyl)amino)piperidin-1-yl)phenyl)-1-(2,6-difluorophenyl)-6-oxo-1,6-dihydropyridazine-3-carboxamide]
< 100 | Cn1c(C(C)(C)C)nc2c(N3CC[C@@H](O)C3)c(NC(=O)c3ccc(=O)n(-c4c(F)cccc4F)n3)ccc21 [Example 102, (R)-N-(4-(2-tert-butyl)-4-(3-hydroxypyrrolidin-1-yl)-1-methyl-1H-benzo 112 midazolezol-5-yl)-1-(2,6-difluorophenyl)-6-oxo-1,6-dihydropyridazine-3-carboxamide]
< 100 | [2H]C([2H])([2H])n1cc2c(N3C[C@@H](C)[C@@H](N)C3)c(NC(=O)c3ccc(=O)n(-c4c(F)cccc4F)n3)ccc2n1 [Example 178, N-(4-((3R,4R)-3-amino-4-methylpyrrolidin-1-yl)-2-(methyl-d3)-2H-indazol-5-yl)-1-(2,6-difluorophenyl)-6-oxo-1,6-dihydropyridazine-3-carboxamide]
< 100 | Cn1c(C(F)(F)F)nc2c(N3CCC[C@H]3CN)c(NC(=O)c3ccnn(-c4c(F)cccc4F)c3=O)ccc21 [Example 40, (S)-N-(4-(2-(aminomethyl)pyrrolidin-1-yl)-1-methyl-2-(trifluoromethyl)-1H-benzo[d]imidazol-5-yl)-2-(2,6-difluorophenyl)-3-oxo-2,3-dihydropyridazine-4-carboxamide]
< 100 | CC(C)c1nc2c(N3CC[C@](N)(CO)C3)c(NC(=O)c3ccc(=O)n(-c4c(F)cccc4F)n3)ccc2n1C (single isomer, unassigned) [Example 124]
< 100 | COc1cccc(F)c1-c1nccc(C(=O)Nc2ccc(-c3cnccc3C#N)cc2N2C[C@@H](N)C[C@H]2CO)c1F [Example 13, N-(2-((2S,4S)-4-amino-2-(hydroxymethyl)pyrrolidin-1-yl)-4-(4-cyanopyridin-3-yl)phenyl)-3-fluoro-2-(2-fluoro-6-methoxyphenyl)isonicotinamide]
< 100 | C[C@@H]1CN(c2c(NC(=O)c3ccc(=O)n(-c4c(F)cccc4F)n3)ccc3c2cnn3[C@@H]2CCCOC2)C[C@@H]1N [Example 252, N-(4-((3R,4R)-3-amino-4-methylpyrrolidin-1-yl)-1-((R)-tetrahydro-2H-pyran-3-yl)-1H-indazol-5-yl)-1-(2,6-difluorophenyl)-6-oxo-1,6-dihydropyridazine-3-carboxamide]
< 100 | Cn1ncc2c(N3CCC(N)CC3)c(NC(=O)c3ccc(=O)n(-c4c(F)cccc4F)n3)cc(F)c21 [Example 168, N-(4-(4-aminopiperidin-1-yl)-7-fluoro-1-methyl-1H-indazol-5-yl)-1-(2,6-difluorophenyl)-6-oxo-1,6-dihydropyridazine-3-carboxamide]
< 100 | N#Cc1ccncc1-c1ccc(NC(=O)c2ccc(=O)n(-c3c(F)cccc3F)n2)c(N2C[C@@H](N)C[C@H]2CO)c1 [Example 347, N-(2-((2S,4S)-4-amino-2-(hydroxymethyl)pyrrolidin-1-yl)-4-(4-cyanopyridin-3-yl)phenyl)-1-(2,6-difluorophenyl)-6-oxo-1,6-dihydropyridazine-3-carboxamide]
< 100 | Cn1c(C(C)(C)C)nc2c(N3CC[C@@](C)(N)C3)c(NC(=O)c3ccc(=O)n(-c4c(F)cccc4F)n3)ccc21 (single isomer, unassigned) [Example 101]
< 100 | C[C@@H]1CN(c2c(NC(=O)c3ccc(=O)n(-c4c(F)cccc4F)n3)ccc3nn(C45CCC(CC4)CC5)cc23)C[C@@H]1N [Example 304, N-(4-((3R,4R)-3-amino-4-methylpyrrolidin-1-yl)-2-(bicyclo[2.2.2]octan-1-yl)-2H-indazol-5-yl)-1-(2,6-difluorophenyl)-6-oxo-1,6-dihydropyridazine-3-carboxamide]
< 100 | Cn1c(C(C)(C)C)nc2c(N3CC[C@@H](N)C3)c(NC(=O)c3ccc(=O)n(-c4c(F)cccc4F)n3)ccc21 [Example 99, (R)-N-(4-(3-aminopyrrolidin-1-yl)-2-(tert-butyl)-1-methyl-1H-benzo[d]imidazol-5-yl)-1-(2,6-difluorophenyl)-6-oxo-1,6-dihydropyridazine-3-carboxamide]
< 100 | COCCn1ncc2c(N3CCC(N)CC3)c(NC(=O)c3ccc(=O)n(-c4c(F)cccc4F)n3)cc(F)c21 [Example 284, N-(4-(4-aminopiperidin-1-yl)-7-fluoro-1-(2-methoxyethyl)-1H-indazol-5-yl)-1-(2,6-difluorophenyl)-6-oxo-1,6-dihydropyridazine-3-carboxamide]
< 100 | CC(C)n1ncc2c(N3C[C@@H](N)C[C@H]3CO)c(NC(=O)c3ccc(=O)n(-c4c(F)cccc4F)n3)ccc21 [Example 212, N-(4-((25,4S)-4-amino-2-(hydroxymethyl)pyrrolidin-1-yl)-1-isopropyl-1H-indazol-5-yl)-1-(2,6-difluorophenyl)-6-oxo-1,6-dihydropyridazine-3-carboxamide]

From US20250122174A1 (Shenzhen Yuanli Shenwan Innovative Medicine Co., Ltd., priority 2022, published 2025)
